Data set [1] relates to patients with moderate to severe COPD. Nature of the data set: Clinical study of nebulised ensifentrine 3 mg BID vs placebo, lung function (FEV1) in COPD. It counts as in vivo, human. The following applies: 3 mg BID by nebuliser. How it is done: A clinical study was conducted to determine the efficacy of ensifentrine in treating COPD compared with placebo. Ensifentrine was administered by nebuliser at a dose of 3 mg twice daily (BID) for 24 weeks. The study was a multi-centre, randomized, double-blind, parallel-group, placebo-controlled trial with around 800 patients and 5:3 randomization.
The study population included patients aged 40-80 years with moderate to severe COPD (FEV1 30%-70% p.n., FEV1/forced vital capacity (FVC) ratio <0.7, with mMRC 2). The randomization stratified (a) the use of stable background maintenance LAMA or LABA therapy use (approx. 50%. yes or no) and (b) cigarette smoking (current or former). Inhaled corticosteroid (ICS) maintenance therapy was permitted in up to 20% of patients under certain provisions.
The primary endpoint of the study was change from baseline in average FEV1 area under the curve (AUC)0-12 h post-dose at week 12. Secondary endpoints of the study included: peak FEV1 over 4 hours post-dose at Week 12; morning trough FEV1 at Week 12; and other endpoints including moderate/severe COPD exacerbations frequency over 24 Weeks.
Baseline FEV1 is the mean of the two measurements taken before study medication on the day of first dosing, i.e. <40 minutes and just prior to dosing, both pre-dose on day 1.
Average FEV1 AUC0-12 h is defined as area under the curve over 12 hours of the FEV1, divided by 12 hours.
The investigational product and placebo were provided in 2.5 mL unit dose format in an ampule and administered via a nebuliser. The formulation of the investigational product (ensifentrine suspension formulation comprising crystalline polymorph Form I of ensifentrine) and placebo are shown in Table 1 below.

The nature of data set [2]: Plasma pharmacokinetics of ensifentrine in COPD patients, popPK model simulation from trial samples. It is filed as in vivo, human. How it is done: Plasma concentrations of ensifentrine for the assessment of pharmacokinetic (PK) parameters were measured using validated bioanalytical methods for ensifentrine in human plasma with LLOQ of 5 pg/mL.
Samples were taken on the following schedule: • Week 6: 1.0 h (±0.5 h) and 2.5 h (±0.5 h) (even sites) or 1.5 h and 4 h (±1 h) (odd sites); • Week 12: pre-dose (−0.5 h), 4 to 6 h, and 8 to 12 h (even sites) or 0.5 h (±0.25 h), 3 h (±0.5 h), and 6 to 8 h (odd sites); • Week 24: pre-dose (−0.5 h) and 1.5 h (even sites) or pre-dose (−0.5 h) and 1 h (±0.5 h) (odd sites)
Based on the samples taken during the trial, PK data was modelled for COPD patients with normal renal function. The final popPK model was used to predict parameter estimates in a virtual population of 50000 subjects (per covariate condition) for simulation of ensifentrine PK following nebulization of 3 mg in a population reflecting the population in the trial with normal renal function or mild renal impairment, or with moderate renal impairment. Uncertainty in fixed effects and covariance matrix parameters as well as residual variability were included in the simulations. The parameter uncertainty was accounted for by random resampling (without replacement) of 500 sets of parameter estimates from the bootstrap (750 replicates) in R to create 500 NONMEM simulation control streams. From each set of parameter estimates, the PK profiles for 100 subjects (for each covariate condition) were simulated with IV and IOV from the covariance matrix and residual error in NONMEM. Individual subject concentrations were simulated using NONMEM version 7.4.3, and PK parameters were calculated using R version 3.4.0.

Data set [3] can be described thus: Plasma pharmacokinetics of ensifentrine after administration of the composition to healthy patients. It counts as in vivo. The following applies: human, inhaled.
[4] abbreviates: human, plasma, inhaled, 3 mg, patients with COPD.
[5] abbreviates: nebulization of 3 mg, COPD patients with normal renal function, popPK simulation in virtual population.

For orientation: AUC means the area under the concentration-time curve, a measure of exposure. Read a high AUC as more exposure. One may read the Cmax as the highest concentration seen after dosing.

For `COc1cc2c(cc1OC)-c1c/c(=N\c3c(C)cc(C)cc3C)n(CCNC(N)=O)c(=O)n1CC2` [Ensifentrine, N-(2-{(2E)-9,10-dimethoxy-4-oxo-2-[(2,4,6-trimethylphenyl)imino]-6,7-dihydro-2H-pyrimido[6,1-a]isoquinolin-3(4H)-yl}ethyl)urea], the “primary endpoint of average FEV1 (AUC)0-12 h at Week 12” value in data set [1] (Week 12) is “met”. In addition, the “Average FEV1 (AUC)0-12 h post-dose at Week 12: Change from Baseline (CFB) Least Squares Mean” value in data set [1] (Week 12, n = 498, COPD patients) is given as 48.2 mL. For the same compound, the “Average FEV1 (AUC)0-12 h post-dose at Week 12: Placebo-corrected CFB LS Mean Diff.” value in data set [1] (Week 12, vs placebo (n = 291)) is on record as 93.9 mL. Also, the “improvement in lung function in subgroups of COPD patients” value in data set [1] (all subgroups) is “improvement in lung function with ensifentrine that was statistically significant”. Further, the “systemic exposure in COPD patients compared with healthy patients” value in data set [2] (COPD patients vs healthy patients) is recorded as “lower systemic exposure”. In data set [2] (setting [4]), this compound showed an area under the curve (AUC) of 2.45 ng·h/mL and a Cmax of 0.522 ng/mL. Further, in data set [2] (setting [5]), the “AUC0-tau, Median (90% prediction interval)” value is on record as 2450 (882-7500) pg/mL * h; the “Cmax, Median (90% prediction interval)” value is on record as 522 (173-1330) pg/mL; the “tmax, Median” value was 1.0 h. In addition, the highest concentration (Cmax) in data set [3] was determined as 0.852 ng/mL. Moreover, the AUC(0-inf) in data set [3] (read-out: mean AUC0-∞) worked out at 5.93 ng·h/mL.

Source of the values: patent publication US20240165023A1, “LIQUID PHARMACEUTICAL COMPOSITION” (Verona Pharma PLC, priority 2022, published 2024).
